What was measured:
[1] = From the text: CB-0406 tromethamine salt has been characterized using DSC, TGA, XRPD, hot stage microscopy, and solution ^1H NMR. CB-0406 tromethamine salt has also been tested by relative humidity stressing, and its solubility measured in simulated intestinal fluid without pancreatin.
[2] = 75% RH and 41° C.
Protocol: Relative humidity (RH) stressing of CB-0406 tromethamine salt was performed by placing solid CB-0406 tromethamine salt in an RH chamber containing a saturated aqueous solution of sodium chloride (˜75% RH), potassium chloride (˜84% RH, RT/-82% RH, 40° C.), sodium bromide (˜58% RH, RT), or potassium sulfate (˜97% RH, RT/-96% RH, 40° C.), with excess salt present. The chamber was sealed and left at ambient temperature or placed in an oven at elevated temperature.

[3] = at 95% relative humidity relative to weight at 5% relative humidity; approx. 0.2 equivalents of water; essentially completely reversible
Protocol: A DVS analysis of CB-0406 tromethamine salt was performed using a VTI SGA-100 Vapor Sorption Analyzer. The sample was not dried prior to analysis, and data were not corrected for the initial moisture content of the sample. Equilibrium criteria used for analysis were less than 0.010% weight change in 5 minutes, with a maximum equilibration time of 3 hours if the weight criterion was not met. […] Sodium chloride and polyvinylpyrrolidone were used as calibration standards.

CYP 2C9 = CYP 2C9 (Homo sapiens, UniProt P11712); conditions: tolbutamide hydroxylation assay; relative to (S)-enantiomer; cited from earlier work
CYP 2C9, sequence (P11712 whole entry, species assumed): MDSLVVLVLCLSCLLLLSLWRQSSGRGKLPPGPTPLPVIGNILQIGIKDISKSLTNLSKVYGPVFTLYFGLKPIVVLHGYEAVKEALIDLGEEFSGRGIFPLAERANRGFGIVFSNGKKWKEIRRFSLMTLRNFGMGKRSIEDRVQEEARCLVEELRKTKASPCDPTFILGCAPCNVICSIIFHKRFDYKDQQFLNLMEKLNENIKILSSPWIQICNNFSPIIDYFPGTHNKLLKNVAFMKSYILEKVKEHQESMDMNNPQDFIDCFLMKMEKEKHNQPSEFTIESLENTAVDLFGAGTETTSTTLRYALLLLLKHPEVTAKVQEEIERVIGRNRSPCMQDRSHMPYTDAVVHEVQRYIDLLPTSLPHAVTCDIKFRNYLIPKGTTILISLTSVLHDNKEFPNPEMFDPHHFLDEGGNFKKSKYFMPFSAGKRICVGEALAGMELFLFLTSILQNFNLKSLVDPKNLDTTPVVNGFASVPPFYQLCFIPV

With “1,3-dihydroxy-2-(hydroxymethyl)propan-2-aminium (2R)-2-(4-chlorophenyl)-2-[3-(trifluoromethyl)phenoxy]acetate [CB-0406 tromethamine salt]” the solubility ([1]; simulated intestinal fluid without pancreatin) was over 200 mg/mL, the “solubility in simulated intestinal fluid, fold greater than that of CB-0406” value ([1]; simulated intestinal fluid, relative to CB-0406) was at least 60 fold and the “appearance after RH stressing” value ([2]; at 7 and 9 days) was “free-flowing solid”. For the same molecule, the “XRPD analysis after RH stressing” value ([2]; at 18 and 46 days, some increase in low angle scattering background) was “consistent with CB-0406 tromethamine salt” and the “net weight gain (DVS)” value [3] was “less than 0.8%”.
For `O=C(O)[C@H](Oc1cccc(C(F)(F)F)c1)c1ccc(Cl)cc1` [CB-0406, (2R)-2-(4-chlorophenyl)-2-[3-(trifluoromethyl)phenoxy]acetic acid], the “fold less active as an inhibitor of CYP 2C9 than its (S)-enantiomer” value (CYP 2C9) is given as “approximately 20 fold”.
